The values that follow come from patent US20100099676A1 (SHIONOGI & CO., LTD., priority 2006, published 2010).

Some results are limits rather than exact numbers.

Experiment in all cases: Enzyme inhibiting activity of MMPs, fluorogenic peptide substrate
Common to all, as to format: biochemical

In test [1] the target is T1, MMP-2 (Homo sapiens, UniProt P08253).
T1 construct: purchased Calbiochem (EMD/MERCK Biosciences)
T1 sequence (P08253 110-660): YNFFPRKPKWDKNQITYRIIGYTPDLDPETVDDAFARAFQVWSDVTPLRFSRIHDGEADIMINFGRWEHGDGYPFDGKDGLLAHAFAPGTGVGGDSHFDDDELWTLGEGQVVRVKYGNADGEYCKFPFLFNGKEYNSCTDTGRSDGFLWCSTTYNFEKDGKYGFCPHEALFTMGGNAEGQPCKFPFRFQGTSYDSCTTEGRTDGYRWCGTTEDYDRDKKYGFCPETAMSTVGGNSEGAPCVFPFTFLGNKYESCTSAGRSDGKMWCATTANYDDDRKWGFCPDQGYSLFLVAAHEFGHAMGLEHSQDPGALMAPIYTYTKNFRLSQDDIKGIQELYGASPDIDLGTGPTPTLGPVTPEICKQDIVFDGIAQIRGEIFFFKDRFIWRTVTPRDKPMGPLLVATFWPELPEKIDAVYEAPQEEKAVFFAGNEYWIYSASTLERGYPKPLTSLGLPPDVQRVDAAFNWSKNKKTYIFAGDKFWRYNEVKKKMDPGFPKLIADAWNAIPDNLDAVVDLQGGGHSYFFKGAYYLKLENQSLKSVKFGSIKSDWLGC
As to conditions: substrate MOCAc-Pro-Leu-Gly-Leu-A2Pr(DNP)-Ala-Arg-NH2, fluorescent intensity. An outline of the steps: (§1)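 Recombinant human enzymes with the fluorogenic substrate MOCAc-Pro-Leu-Gly-Leu-A2Pr(DNP)-Ala-Arg-NH2. Fluorescence was read for enzyme+substrate±inhibitor and substrate±inhibitor blanks.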

Test [2] addresses T2, MMP-9 (Homo sapiens, UniProt P14780).
T2 construct: purchased Calbiochem (EMD/MERCK Biosciences)
Conditions: substrate MOCAc-Pro-Leu-Gly-Leu-A2Pr(DNP)-Ala-Arg-NH2, fluorescent intensity. An outline of the steps:
as §1

Test [3] deals with T3, MMP-13 (Homo sapiens, UniProt P45452).
T3 construct: purchased Calbiochem (EMD/MERCK Biosciences)
As to conditions: APMA-activated proenzyme; substrate MOCAc-Pro-Leu-Gly-Leu-A2Pr(DNP)-Ala-Arg-NH2, fluorescent intensity; read-out: IC50 MMP-13. An outline of the steps: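 Pro-MMP-13 was activated with 1 mM APMA at 37° C for 2 h in 50 mM Tris-HCl pH 7.6, 0.3 M NaCl, 10 mM CaCl2, 0.005% Brij35. Activity was read by fluorescence using MOCAc-Pro-Leu-Gly-Leu-A2Pr(DNP)-Ala-Arg-NH2 substrate, with enzyme and inhibitor blank corrections. IC50 is the concentration giving 50% inhibition.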

T2 sequence (P14780 94-707): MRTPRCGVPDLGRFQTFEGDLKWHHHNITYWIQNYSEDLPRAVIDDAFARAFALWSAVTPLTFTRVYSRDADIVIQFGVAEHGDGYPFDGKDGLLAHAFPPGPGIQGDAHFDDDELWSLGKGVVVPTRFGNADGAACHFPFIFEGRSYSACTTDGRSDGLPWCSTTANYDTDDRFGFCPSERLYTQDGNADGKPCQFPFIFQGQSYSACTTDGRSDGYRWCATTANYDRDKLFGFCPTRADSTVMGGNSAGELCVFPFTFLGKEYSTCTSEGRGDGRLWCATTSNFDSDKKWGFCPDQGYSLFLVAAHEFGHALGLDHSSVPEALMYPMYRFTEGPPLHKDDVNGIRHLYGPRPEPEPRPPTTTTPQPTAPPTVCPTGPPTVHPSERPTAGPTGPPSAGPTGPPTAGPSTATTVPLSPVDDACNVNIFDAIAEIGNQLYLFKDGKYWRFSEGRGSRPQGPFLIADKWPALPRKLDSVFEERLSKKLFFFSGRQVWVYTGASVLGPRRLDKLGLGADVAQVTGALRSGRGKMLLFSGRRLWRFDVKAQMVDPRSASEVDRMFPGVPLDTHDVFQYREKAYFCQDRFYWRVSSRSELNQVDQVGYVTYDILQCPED

The IC50 is the point on the concentration scale where inhibition reaches its midpoint. On to `CC(=O)Nc1cccc(-c2csc(C#Cc3ccc(N4CCN(S(=O)(=O)N[C@@H](C(=O)O)C(C)C)CC4)cc3)n2)c1` [Compound V-86, (R)-2-(4-{4-[4-(3-acetylaminophenyl)-thiazol-2-ylethynyl]-phenyl}-piperazine-1-sulfonylamino)-3-methylbutanoic acid], for which the IC50 in test [1] is 1000 to 10000 nM; in test [2], > 10000 nM; in test [3] it was 12 nM.
On the same counts, the results for “(R)-3-methyl-2-{4-[4-(1-methyl2,4-dioxo-3-pyridin-4-ylmethyl-1,2,3,4-tetrahydroquinazolin-6-ylethynyl)-phenyl]-piperazine-1-sulfonylamino}-3-methylbutanoic acid [Compound V-77]” are > 10000 nM, > 10000 nM and 4 nM.
In the case of `CC(=O)c1nccc2ccc(C#Cc3ccc(N4CCN(S(=O)(=O)N[C@@H](C(=O)O)C(C)C)CC4)cc3)cc12` [Compound V-1, (R)-2-{4-[4-(1-acetylisoquinolin-7-ylethynyl)-phenyl]-piperazine-1-sulfonylamino}-3-methylbutanoic acid], the IC50 in test [1] is 1000 to 10000 nM; in test [2], > 10000 nM; in test [3], 46 nM.
As to `COc1ccc(F)cc1-c1csc(C#Cc2ccc(N3CCN(S(=O)(=O)N[C@H](C)C(=O)O)CC3)cc2)n1` [Compound V-15, (R)-2-(4-{4-[4-(5-fluoro-2-methoxyphenyl)-thiazol-2-ylethynyl]-phenyl}-piperazine-1-sulfonylamino)-proponic acid], the IC50 in test [1] is 1000 to 10000 nM; in test [2] it was > 10000 nM; in test [3], 13 nM.
`COc1ccc(Cn2ccc3ccc(C#Cc4ccc(N5CCN(S(=O)(=O)N[C@@H](C(=O)O)C(C)C)CC5)cc4)cc3c2=O)cc1` [III-167, (R)-2-(4-{4-[2-(4-methoxybenzyl)-1-oxo-1,2-dihydroisoquinolin-7-ylethynyl]-phenyl}-piperazine-1-sulfonylamino)-3-methylbutanoic acid]: the IC50 is > 10000 nM in test [1], > 10000 nM in test [2] and 14 nM in test [3].
Turning to `COc1ccc(CNC(=O)c2cc(C#Cc3ccc(N4CCN(S(=O)(=O)N[C@H](C(=O)O)C(C)C)CC4)cc3)ccn2)cc1` [Compound V-34, (5)-2-(4-{4-[2-(4-methoxybenzylcarbamoyl)-pyridin-4-ylethynyl]-phenyl}-piperazine-1-sulfonylamino)-3-methylbutanoic acid], the values for the IC50 in test [1], in test [2] and in test [3] were 1000 to 10000 nM, > 10000 nM and 5 nM, respectively.
Turning to `COC(=O)c1ccc(COc2cccc(-c3csc(C#Cc4ccc(N5CCN(S(=O)(=O)N[C@H](C)C(=O)O)CC5)cc4)n3)c2)cc1` [Compound V-22, 4-[3-(2-{4-[4-((R)-1-carboxyethylsulfamoyl)-piperazin-1-yl]-phenylethynyl}-thiazol-4-yl)-phenoxymethyl]-benzoic acid methyl ester], the IC50 in test [1] was > 10000 nM; in test [2] it was > 10000 nM; in test [3], 8 nM.
In the case of `CC(C)[C@@H](NS(=O)(=O)N1CCN(c2ccc(C#Cc3ccc4c(c3)c(=O)n(Cc3ccc(F)c(F)c3)c(=O)n4C)cc2)CC1)C(=O)O` [Compound V-76, (R)-2-(4-{4-[3-(3,4-difluorobenzyl)-1-methyl-2,4-dioxo-1,2,3,4-tetrahydroquinazolin-6-ylethynyl]-phenyl}-piperazine-1-sulfonylamino)-3-methylbutanoic acid], the IC50 was > 10000 nM in test [1], > 10000 nM in test [2] and 18 nM in test [3].
As for `CC(C)[C@@H](NS(=O)(=O)N1CCN(c2ccc(C#Cc3ccnc(C(=O)NCc4ccc(N5CCCC5=O)cc4)c3)cc2)CC1)C(=O)O` [III-37, (R)-3-methyl-2-[4-(4-{2-[4-(2-oxopyrrolidine-1-yl)-benzylcarbamoyl]-pyridin-4-ylethynyl}-phenyl)-piperazine-1-sulfonylamino]-butanoic acid], the IC50 in test [1] is 100 to 1000 nM; in test [2], > 10000 nM; in test [3], 1 nM.
As for `COc1ccc(Cn2c(=O)c3cc(C#Cc4ccc(N5CCN(S(=O)(=O)N[C@@H](C(=O)O)C(C)C)CC5)cc4)ccc3n(C)c2=O)cc1` [III-80, (R)-2-(4-{4-[3-(4-methoxybenzyl)-1-methyl-2,4-dioxo-1,2,3,4-tetrahydroquinazolin-6-ylethynyl]-phenyl}-piperazine-1-sulfonylamino)-3-methylbutanoic acid], the results for the IC50 in test [1], in test [2] and in test [3] were > 10000 nM, > 10000 nM and 13 nM, respectively.
On to `CC(C)[C@@H](NS(=O)(=O)N1CCN(c2ccc(C#Cc3ccnc(C(=O)NCc4ccc(F)c(F)c4)c3)cc2)CC1)C(=O)O` [III-189, (R)-2-(4-{4-[2-(3.4-difluorobenzylcarbamoyl)-pyridin-4-ylethynyl]-phenyl}-piperazine-1-sulfonylamino)-3-methylbutanoic acid], for which the IC50 in test [1] was 1000 to 10000 nM; in test [2], > 10000 nM; in test [3], 5 nM.
On the same counts, the results for `C[C@@H](NS(=O)(=O)N1CCN(c2ccc(C#Cc3ccnc(C(=O)NCc4ccc5c(c4)oc(=O)n5C)c3)cc2)CC1)C(=O)O` [Compound V-2, (R)-2-[4-(4-{2-(3-methyl-2-oxo-2,3-dihydrobenzoxazol-6-ylmethyl)-carbamoyl]-pyridin-4-ylethynyl}-phenyl)-piperazine-1-sulfonylaminol-proponic acid] are 1000 nM, > 10000 nM and 1 nM.
As for `CC(C)[C@@H](NS(=O)(=O)N1CCN(c2ccc(C#Cc3ccc4[nH]c(=O)n(Cc5cccc(F)c5)c(=O)c4c3)cc2)CC1)C(=O)O` [Compound V-65, (R)-2-(4-{4-[3-(3-fluorobenzyl)-2,4-dioxo-1,2,3,4-tetrahydroquinazolin-6-ylethynyl]-phenyl}-piperazine-1-sulfonylamino)-3-methylbutanoic acid], the IC50 was > 10000 nM in test [1], > 10000 nM in test [2] and 17 nM in test [3].
As for `CC(=O)c1csc2ccc(C#Cc3ccc(N4CCN(S(=O)(=O)N[C@H](C)C(=O)O)CC4)cc3)cc12` [Compound V-56, (R)-2-{4-[4-(3-acetylbenzo[b]thiophen-5-ylethynyl)-phenyl]-piperazine-1-sulfonylamino}-proponic acid], the IC50 in test [1] is 1000 to 10000 nM; in test [2], > 10000 nM; in test [3], 16 nM.
`CC(C)[C@@H](NS(=O)(=O)N1CCN(c2ccc(C#Cc3ccc4ccn(Cc5ccncc5)c(=O)c4c3)cc2)CC1)C(=O)O` [III-169, (R)-3-methyl-2-{4-[4-(1-oxo-2-pyridin-4-ylmethyl-1,2-dihydroisoquinolin-7-ylethynyl)-phenyl]-piperazine-1-sulfonylamino}-butanoic acid]: the values for the IC50 in test [1], in test [2] and in test [3] were 1000 to 10000 nM, > 10000 nM and 3 nM, respectively.
For the compound `CC(C)CON=Cc1cccc2ccc(C#Cc3ccc(N4CCN(S(=O)(=O)N[C@H](C)C(=O)O)CC4)cc3)cc12` [III-17, (R)-2-(4-{4-[8-(isobutoxyiminomethyl)-naphthalen-2-ylethynyl]-phenyl}-piperazine-1-sulfonylamino)-proponic acid], the results for the IC50 in test [1], in test [2] and in test [3] were > 10000 nM, > 10000 nM and 25 nM, respectively.
On to `CC(C)[C@@H](NS(=O)(=O)N1CCN(c2ccc(C#Cc3ccnc(C(=O)NCc4ccc(C(F)(F)F)cc4)c3)cc2)CC1)C(=O)O` [III-194, (R)-3-methyl-2-(4-{4-[2-(4-trifluoromethylbenzylcarbamoyl)-pyridin-4-ylethynyl]-phenyl}-piperazine-1-sulfonylamino)-butanoic acid], for which the IC50 in test [1] is > 10000 nM; in test [2], > 10000 nM; in test [3] it was 26 nM.
As for `CC(C)[C@@H](NS(=O)(=O)N1CCN(c2ccc(C#Cc3ccnc(C(=O)NCc4ccc(C(C)(C)C)cc4)c3)cc2)CC1)C(=O)O` [III-154, (R)-2-(4-{4-[2-(4-tert-butylbenzylcarbamoyl)-pyridin-4-ylethynyl]-phenyl}-piperazine-1-sulfonylamino)-3-methylbutanoic acid], the results for the IC50 in test [1], in test [2] and in test [3] were > 10000 nM, > 10000 nM and 21 nM, respectively.
`C[C@@H](NS(=O)(=O)N1CCN(c2ccc(C#Cc3ccnc(C(=O)NCc4ccc(Cl)cc4)c3)cc2)CC1)C(=O)O` [III-1, (R)-2-(4-{4-[2-(4-chrolobenzylcarbamoyl)-pyridin-4-ylethynyl]-phenyl}-piperazine-1-sulfonylamino)-proponic acid]: the IC50 in test [1] is 1000 to 10000 nM; in test [2], > 10000 nM; in test [3], 3 nM.
